According to US10155927B2, “Method for differentiation of pluripotent stem cells into cardiomyocytes” (Hoffmann-La Roche Inc., priority 2014, dated 2018):

What was measured:
[1] = test system: pluripotent cells (hESC or iPSC); test: Cell viability / cell death during the differentiation protocol; assay type: cell-based
Protocol: (§1) To initialize differentiation, the cells are incubated in insulin-free medium comprising compound 21 (3-(3-Amino-phenyl)-4-(1-methyl-1H-indol-3-yl)-pyrrole-2,5-dione, also referred to as “compound 21” or “CP21” herein; see e.g., Gong et al. (2010) Bioorganic& Medicinal Chemistry Letters 20:1693-1696) to activate the wnt-pathway. The optimal concentration of compound 21 to induce cardiomyocyte differentiation is dependent on the cell density of the pluripotent cells that are attached to the cell vessel. […] This is surprising as prior art protocols require higher concentrations of other modulators of the Wnt pathway for efficient differentiation.
(§2) The optimal concentration was identified at 2 μM. […] In one embodiment, step c) of the differentiation method comprises incubating the cells in a medium comprising 1-10 μM Wnt-C59. In one preferred embodiment step c) of the differentiation method comprises incubating the cells in a medium comprising 2 μM Wnt-C59.

[2] = test system: human embryonic stem cells (hESC) and induced pluripotent stem cells (iPSC); test: Differentiation of pluripotent stem cells (hESC or iPSC) into cardiomyocytes; assay type: cell-based; set-up: key to Amount of cardiomyocytes obtained: (−) No cardiomyocytes obtained; (+)—(+++): Amount of cardiomyocytes obtained; (+)—(+++): Amount of cardiomyocytes obtained; (+)—(+++): Amount of cardiomyocytes obtained; details: for Amount of cardiomyocytes obtained: Experiments I-III; for Ability to induce cardiomyocyte differentiation: other Wnt inhibitors tested instead of Wnt-C59
Protocol: as §1, §2
Anthelmintic niclosamide and Pyrvinium were tested for their ability to induce cardiomyocyte differentiation.
Human embryonic stem cells (hESC) or induced pluripotent stem cells (iPSC) were cultured in 56 cm^2 dishes coated with Matrigel (BD Bioscience, Cat. 354277) at 37° C. and 5% CO2 in 10 ml mTeSR1 medium (Stemcell Technologies, Cat. 05850).
To propagate pluripotent stem cells by conserving their pluripotent state, hESC or iPSC were treated with the following: the cells were washed once with 10 ml PBS−/−, and afterwards incubated with 3 ml Accutase (Innovative Cell Technologies, Cat. AT-104) for 2-3 minutes at 37° C. and 5% CO2, to detach the cells.
The enzymatic reaction of Accutase was stopped with 7 ml mTeSR1 and followed by centrifugation of the cells for 3 minutes at 500×g.
The cells were resuspended in 10 ml mTeSR1, and counted. For further cultivation, 2×10^6 cells were plate on 56 cm^2 dishes with fresh coated Matrigel. Further the hESC or iPSC were cultivated in 10 ml mTeSR1 and 10 μM Rock inhibitor, Y-27632 (Millipore, Cat. SCM075) at 37° C. and 5% CO2. Subsequently, 10 ml mTeSR1 medium was changed daily and the pluripotent stem cells were cultivated to a density of 80% before passaging.
For successful differentiation into cardiomyocytes, pluripotent stem cells were plated at high density using 5.5×10^5/cm^2 of hESC or iPSC. Passaging and cultivation were performed as described above for pluripotent stem cells.
After 24 hours (day 1) the hESC or iPSC were washed once with 180 μl/cm^2 PBS−/− and the cultivation medium was changed to 180 μl/cm^2 differentiation medium.
After 24 hours (day 2) incubation with CP21, the cells were washed with PBS−/− as described above and cultivated for 48 hours in 220 μl/cm^2 differentiation medium.
After 48 hours (day 4), the cells were washed with PBS−/− as described above and cultivated for 48 hours in 220 μl/cm^2 differentiation medium comprising 2 μM Wnt-C59 (Cellagen Technology, Cat. C7641-2s, International Patent Application Publication No. WO 20101 01849), a potent Wnt signaling inhibitor, by blocking Wnt secretion.
After 48 hours (day 6), the cells were washed with PBS−/− as described above and cultivated for 48 hours in 220 μl/cm^2 differentiation medium.
After 48 hours (day 8), the cells were washed with PBS−/− as described above and cultivated for 48 hours in 220 μl/cm^2 RPMI medium comprising ascorbic acid, penicillin-streptomycin, but now including B27 plus insulin, minus vitamin A (=expansion medium)
Subsequent medium changes were performed every 48 hours using 220 μl/cm^2 expansion medium.
To test the efficiency of the differentiation process, the cardiomyocytes were characterized at differentiation day 14 by cell immunohistochemistry and Fluorescence Activated Cell Sorting (FACS) using antigens specific to cardiomyocytes.
The protocol as described above was repeated with different CP21 concentrations. The results are shown in Table 1 below: (−) No cardiomyocytes obtained, (+)—(+++): Amount of cardiomyocytes obtained.

[3] = test system: pluripotent stem cell derived cardiomyocytes; test: xCELLigence cardiomyocyte beating analysis; assay type: cell-based, human
Protocol: Isoproterenol increases the heart rate and myocardial contractility by stimulating cardiac beta-1 receptors. To detect this proarrhythmic effect in the stem cell derived cardiomyocytes, 7×10^4/cm^2 cells were plated on special E-Plate Cardio 96 (Roche, Cat. No. 05232368001) coated with 130 μl/cm^2 0.1% Gelatine for 1 hour at 37° C. After cells attached to the plate and recovered for 2 days as described above, medium was changed to iCell Cardiomyocytes Maintenance Medium (Cellular Dynamics, Cat. No.CMM-100-120-005). Cells were measured using the xCELLigence RTCA Cardio System (Roche Applied Science). 7 days after plating the cells were treated with 3 μM Isoproterenol and measured directly. Each 96-well plate was measured at a resolution of 12.9 ms. The first 3 minutes were measured without interruption and over the next 24 hours the cells were measured every 15 minutes for 1 minute duration. Activation of β-receptors on the heart induces positive chronotropic effects in cardiomyocytes. To confirm that the pluripotent stem cell derived cardiomyocytes respond to β-receptor activation, the cardiomyocytes were incubated with the β-receptor agonist isoproterenol and subsequently analysed using the xCELLigence system.

## Cn1cc(C2=C(c3cccc(N)c3)C(=O)NC2=O)c2ccccc21 [CP21, 3-(3-Amino-phenyl)-4-(1-methyl-1H-indol-3-yl)-pyrrole-2,5-dione]
[1]; After 24 h CP21 incubation
  Cell death after incubation: strong cell death
[1]; step b) of differentiation
  Concentrations showing decreased cell viability: above 5 μM
[2]; Cp21 conc. 0.3 μM
  Amount of cardiomyocytes obtained: −
[2]; Cp21 conc. 1 μM
  Amount of cardiomyocytes obtained: +
[2]; Cp21 conc. 2 μM
  Amount of cardiomyocytes obtained: ++ and +++
[2]; Cp21 conc. 3 μM
  Amount of cardiomyocytes obtained: ++ and +
[2]; Cp21 conc. 5 μM
  Amount of cardiomyocytes obtained: + and −
[2]; Cp21 conc. 10 μM
  Amount of cardiomyocytes obtained: −
[2]; cell density 5.5×10^5/cm^2, tested 0-10 μM at 1.8-11×10^5/cm2 hESC or iPSC
  Concentration resulting in the most efficient differentiation of pluripotent stem cells into cardiomyocytes: 2 µM
[2]; various incubation times tested, longer or shorter less efficient
  Incubation time optimal for cardiogenesis: 24 h

## Cc1cc(/C=C/c2ccc3cc(N(C)C)ccc3[n+]2C)c(C)n1-c1ccccc1 [Pyrvinium]
[2]
  Ability to induce cardiomyocyte differentiation: did not result in a successful generation of cardiomyocytes

## Cc1cc(-c2ccc(CC(=O)Nc3ccc(-c4cccnc4)cc3)cc2)ccn1 [Wnt-C59, 2-(4-(2-methylpyridin-4-yl)phenyl)-N-(4-(pyridin-3-yl)phenyl)acetamide]
[1]; step c) of differentiation
  Concentrations showing increased cell death: more than 5 μM
[2]; Wnt repressor in step c), tested 1-10 μM
  Optimal concentration for cardiomyocyte differentiation: 2 µM
[2]; Wnt-C59 1-10 μM, step c)
  Effect on cardiomyocytes obtained: significant increase in cardiomyocytes

## CC(C)NCC(O)c1ccc(O)c(O)c1 (centres unmarked) [isoproterenol]
[3]; 3 μM isoproterenol, untreated control 45 beats per minute
  Beating rate: 60 beats per minute
[3]; FIG. 5, xCELLigent analysis
  Effect on beating frequency: increases beating frequency

## O=C(Nc1ccc([N+](=O)[O-])cc1Cl)c1cc(Cl)ccc1O [Anthelmintic niclosamide, niclosamide]
[2]
  Ability to induce cardiomyocyte differentiation: did not result in a successful generation of cardiomyocytes
